Test results reported in PubChem BioAssay (NCI).
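Where inhibition never reached the appropriate level, the endpoint shown equals the highest concentration tested. Otherwise, values were interpolated linearly from a five-concentration, 48-hour dose response in 96-well plates. At the GI50, growth is halved. TGI: total growth inhibition.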

How the values were obtained:
Test in all cases: inhibition of tumour cell growth, NCI panel, 48 h
[1] = test system: HOP-62 NSCLC
[2] = test system: ACHN renal
[3] = test system: SK-OV-3 ovarian
[4] = test system: SW-620 colon
[5] = test system: UACC-62 melanoma
[6] = test system: MCF7 breast
[7] = test system: KM12 colon
[8] = test system: 786-0 renal
[9] = test system: SF-295 CNS
[10] = test system: LOX IMVI melanoma
[11] = test system: A498 renal
[12] = test system: DU-145 prostate
[13] = test system: MDA-MB-435
[14] = test system: SF-268 CNS
[15] = test system: TK-10 renal
[16] = test system: HOP-92 NSCLC
[17] = test system: NCI-H460 lung
[18] = test system: EKVX NSCLC
[19] = test system: SNB-19 CNS
[20] = test system: UO-31 renal
[21] = test system: SR leukemia
[22] = test system: SNB-75 CNS
[23] = test system: HL-60(TB) leukemia
[24] = test system: RPMI-8226 leukemia
[25] = test system: MALME-3M melanoma
[26] = test system: CAKI-1 renal
[27] = test system: A549 NSCLC
[28] = test system: SF-539 CNS
[29] = test system: HCC-2998 colon
[30] = test system: HCT-15 colon
[31] = test system: MDA-N
[32] = test system: SN12C renal
[33] = test system: OVCAR-4 ovarian
[34] = test system: U251 CNS
[35] = test system: COLO 205 colon
[36] = test system: IGROV1 ovarian
[37] = test system: M14 melanoma
[38] = test system: HT29 colon
[39] = test system: K-562 leukemia
[40] = test system: OVCAR-8 ovarian
[41] = test system: BT-549 breast
[42] = test system: CCRF-CEM leukemia
[43] = test system: OVCAR-5 ovarian
[44] = test system: HS 578T breast
[45] = test system: MDA-MB-231 breast
[46] = test system: T-47D breast
[47] = test system: NCI-H23 lung
[48] = test system: NCI-H226 lung
[49] = test system: SK-MEL-28 melanoma
[50] = test system: NCI-H522 lung
[51] = test system: SK-MEL-5 melanoma
[52] = test system: SK-MEL-2 melanoma
[53] = test system: NCI/ADR-RES ovarian
[54] = test system: PC-3 prostate
[55] = test system: OVCAR-3 ovarian
[56] = test system: RXF 393 renal
[57] = test system: UACC-257 melanoma
[58] = test system: MOLT-4 leukemia
[59] = test system: HCT-116 colon

SMILES: O=C1C=CC2(C=C1)O[C@H](Cc1ccccc1)[C@@H](Cc1ccccc1)O2
- TGI [1]: 3.63 µM
- TGI [2]: 0.958 µM
- TGI [3]: 13.7 µM
- TGI [4]: 0.254 µM
- TGI [5]: 4.05 µM
- TGI [6]: 1.51 µM
- TGI [7]: 4.51 µM
- TGI [9]: 5.15 µM
- TGI [10]: 0.824 µM
- TGI [11]: 16.6 µM
- TGI [12]: 5.89 µM
- TGI [13]: 3.56 µM
- TGI [14]: 2.48 µM
- TGI [15]: 1.66 µM
- TGI [16]: 2.71 µM
- TGI [17]: 30.8 µM
- TGI [18]: 1.76 µM
- TGI [19]: 6.47 µM
- TGI [20]: 0.69 µM
- TGI [21]: 3.26 µM
- TGI [22]: 7.23 µM
- TGI [23]: 6.52 µM
- TGI [24]: 0.499 µM
- TGI [25]: 4.77 µM
- TGI [26]: 2.27 µM
- TGI [27]: 18.7 µM
- TGI [28]: 1.02 µM
- TGI [29]: 11.1 µM
- TGI [30]: 0.866 µM
- TGI [31]: 0.66 µM
- TGI [32]: 3.01 µM
- TGI [33]: 1.69 µM
- TGI [34]: 2.86 µM
- TGI [35]: 2.99 µM
- TGI [36]: 0.583 µM
- TGI [37]: 2.15 µM
- TGI [38]: 2.81 µM
- TGI [39]: 5.58 µM
- TGI [40]: 0.503 µM
- TGI [41]: 0.563 µM
- TGI [42]: 0.585 µM
- TGI [43]: 1.34 µM
- TGI [44]: 2.42 µM
- TGI [45]: 5.44 µM
- TGI [46]: > 100 µM
- TGI [47]: 3.48 µM
- TGI [48]: 0.902 µM
- TGI [49]: 1.71 µM
- TGI [50]: 0.42 µM
- TGI [51]: 1.76 µM
- TGI [52]: 3.33 µM
- TGI [53]: 1.11 µM
- TGI [54]: 3.34 µM
- TGI [55]: 1.17 µM
- TGI [56]: 0.974 µM
- TGI [57]: 4.51 µM

SMILES: O=[N+]([O-])c1ccc(C=Cc2ccccc2)cc1.[C-]#[O+].[C-]#[O+].[C-]#[O+].[Cr]
- GI50 [1]: > 100 µM
- TGI [1]: > 100 µM
- GI50 [2]: 18.5 µM
- TGI [2]: > 100 µM
- GI50 [3]: 22.9 µM
- TGI [3]: > 100 µM
- GI50 [4]: 79.5 µM
- TGI [4]: > 100 µM
- GI50 [5]: 3.01 µM
- TGI [5]: 46.9 µM
- GI50 [6]: 5.63 µM
- TGI [6]: > 100 µM
- GI50 [7]: 13.7 µM
- TGI [7]: > 100 µM
- GI50 [8]: 3.41 µM
- TGI [8]: > 100 µM
- GI50 [9]: 42.1 µM
- TGI [9]: > 100 µM
- GI50 [10]: 31.3 µM
- TGI [10]: > 100 µM
- GI50 [11]: 7.53 µM
- TGI [11]: > 100 µM
- GI50 [12]: 24.3 µM
- TGI [12]: > 100 µM
- GI50 [13]: 4.81 µM
- TGI [13]: > 100 µM
- GI50 [14]: 32 µM
- TGI [14]: > 100 µM
- GI50 [15]: 12 µM
- TGI [15]: > 100 µM
- GI50 [16]: 4.94 µM
- TGI [16]: > 100 µM
- GI50 [17]: 3.37 µM
- TGI [17]: 89.7 µM
- GI50 [18]: 2.93 µM
- TGI [18]: 30 µM
- GI50 [19]: > 100 µM
- TGI [19]: > 100 µM
- GI50 [20]: 6.3 µM
- TGI [20]: > 100 µM
- GI50 [21]: 2.49 µM
- TGI [21]: > 100 µM
- GI50 [22]: 4.46 µM
- TGI [22]: 37.8 µM
- GI50 [23]: 5.2 µM
- TGI [23]: > 100 µM
- GI50 [25]: > 100 µM
- TGI [25]: > 100 µM
- GI50 [26]: 11.9 µM
- TGI [26]: > 100 µM
- GI50 [27]: 8.69 µM
- TGI [27]: > 100 µM
- GI50 [28]: > 100 µM
- TGI [28]: > 100 µM
- GI50 [29]: > 100 µM
- TGI [29]: > 100 µM
- GI50 [30]: 43.4 µM
- TGI [30]: > 100 µM
- GI50 [31]: 7.25 µM
- TGI [31]: > 100 µM
- GI50 [32]: 10.1 µM
- TGI [32]: > 100 µM
- GI50 [33]: 8.93 µM
- TGI [33]: > 100 µM
- GI50 [59]: 14.8 µM
- TGI [59]: > 100 µM
- GI50 [34]: 36.7 µM
- TGI [34]: > 100 µM
- GI50 [35]: 23.9 µM
- TGI [35]: > 100 µM
- GI50 [36]: 6.78 µM
- TGI [36]: > 100 µM
- GI50 [37]: 7.58 µM
- TGI [37]: > 100 µM
- GI50 [38]: 29.5 µM
- TGI [38]: > 100 µM
- GI50 [39]: 8.61 µM
- TGI [39]: > 100 µM
- GI50 [40]: 9.77 µM
- TGI [40]: > 100 µM
- GI50 [41]: 24.1 µM
- TGI [41]: > 100 µM
- GI50 [42]: 2.72 µM
- TGI [42]: > 100 µM
- GI50 [43]: > 100 µM
- TGI [43]: > 100 µM
- GI50 [44]: 62.9 µM
- TGI [44]: > 100 µM
- GI50 [45]: 46.9 µM
- TGI [45]: > 100 µM
- GI50 [46]: 4.19 µM
- TGI [46]: > 100 µM
- GI50 [47]: 20.9 µM
- TGI [47]: > 100 µM
- GI50 [48]: 27.8 µM
- TGI [48]: > 100 µM
- GI50 [49]: > 100 µM
- TGI [49]: > 100 µM
- GI50 [50]: 3.85 µM
- TGI [50]: > 100 µM
- GI50 [51]: 4.68 µM
- TGI [51]: 29.2 µM
- GI50 [52]: 57.7 µM
- TGI [52]: > 100 µM
- GI50 [53]: 13.4 µM
- TGI [53]: > 100 µM
- GI50 [54]: 43.3 µM
- TGI [54]: > 100 µM
- GI50 [55]: 21.2 µM
- TGI [55]: > 100 µM
- GI50 [56]: 11.8 µM
- TGI [56]: > 100 µM
- GI50 [57]: 44.4 µM
- TGI [57]: > 100 µM
- GI50 [58]: 5.13 µM
- TGI [58]: > 100 µM

SMILES: CN(C)c1ccc(C(Cc2ccccc2)C2NC(=S)NC2=O)cc1 (stereo not drawn)
- TGI [1]: > 100 µM
- TGI [2]: > 100 µM
- TGI [3]: > 100 µM
- TGI [4]: > 100 µM
- TGI [5]: > 100 µM
- TGI [6]: > 100 µM
- TGI [7]: > 100 µM
- TGI [8]: > 100 µM
- TGI [9]: > 100 µM
- TGI [10]: > 100 µM
- TGI [11]: > 100 µM
- TGI [12]: > 100 µM
- TGI [13]: > 100 µM
- TGI [14]: > 100 µM
- TGI [15]: > 100 µM
- TGI [16]: > 100 µM
- TGI [17]: > 100 µM
- TGI [18]: > 100 µM
- TGI [19]: > 100 µM
- TGI [20]: > 100 µM
- TGI [21]: > 100 µM
- TGI [22]: > 100 µM
- TGI [23]: > 100 µM
- TGI [24]: > 100 µM
- TGI [25]: > 100 µM
- TGI [26]: > 100 µM
- TGI [27]: > 100 µM
- TGI [28]: > 100 µM
- TGI [29]: > 100 µM
- TGI [30]: > 100 µM
- TGI [31]: > 100 µM
- TGI [32]: > 100 µM
- TGI [33]: > 100 µM
- TGI [59]: > 100 µM
- TGI [34]: > 100 µM
- TGI [35]: > 100 µM
- TGI [36]: > 100 µM
- TGI [37]: > 100 µM
- TGI [38]: > 100 µM
- TGI [39]: > 100 µM
- TGI [40]: > 100 µM
- TGI [41]: > 100 µM
- TGI [42]: > 100 µM
- TGI [43]: > 100 µM
- TGI [44]: > 100 µM
- TGI [45]: > 100 µM
- TGI [46]: > 100 µM
- TGI [47]: > 100 µM
- TGI [48]: > 100 µM
- TGI [49]: > 100 µM
- TGI [50]: > 100 µM
- TGI [51]: > 100 µM
- TGI [52]: > 100 µM
- TGI [53]: > 100 µM
- TGI [54]: > 100 µM
- TGI [55]: > 100 µM
- TGI [56]: > 100 µM
- TGI [57]: > 100 µM
- TGI [58]: > 100 µM
